From the NIST ThermoML archive (doi:10.1016/j.jct.2015.02.024)
Numbers after ± are expanded uncertainties.

Test: activity coefficient (dimensionless); of the first substance listed, at infinite dilution; xn = mol fraction of the nth substance listed
Conditions: 101 kPa, Liquid, Chromatography, x1 = 0

With `Cc1ccccc1C` [1,2-dimethylbenzene] + C[N+]1(CCCO)CCOCC1.O=S(=O)([N-]S(=O)(=O)C(F)(F)F)C(F)(F)F the activity coefficient (318.15 K) was 5.73 ± 0.39, the activity coefficient (328.15 K) was 5.76 ± 0.39 and the activity coefficient (338.15 K) was 5.78 ± 0.39. It also gave an activity coefficient (348.15 K) of 5.81 ± 0.4, an activity coefficient (358.15 K) of 5.83 ± 0.4 and an activity coefficient (368.15 K) of 5.86 ± 0.4.
For `Cc1cccc(C)c1` [1,3-dimethylbenzene] + C[N+]1(CCCO)CCOCC1.O=S(=O)([N-]S(=O)(=O)C(F)(F)F)C(F)(F)F, the activity coefficient (318.15 K) was 6.44 ± 0.44, the activity coefficient (328.15 K) was 6.55 ± 0.45 and the activity coefficient (338.15 K) was 6.64 ± 0.45. It also gave an activity coefficient (348.15 K) of 6.73 ± 0.46, an activity coefficient (358.15 K) of 6.85 ± 0.47 and an activity coefficient (368.15 K) of 6.92 ± 0.47.
Work on `Cc1ccc(C)cc1` [1,4-dimethylbenzene] + C[N+]1(CCCO)CCOCC1.O=S(=O)([N-]S(=O)(=O)C(F)(F)F)C(F)(F)F yielded an activity coefficient (318.15 K) of 6.65 ± 0.45, an activity coefficient (328.15 K) of 6.7 ± 0.5 and an activity coefficient (338.15 K) of 6.74 ± 0.46. It also gave an activity coefficient (348.15 K) of 6.78 ± 0.46, an activity coefficient (358.15 K) of 6.79 ± 0.46 and an activity coefficient (368.15 K) of 6.84 ± 0.47.
With `C1COCCO1` [1,4-dioxane] + C[N+]1(CCCO)CCOCC1.O=S(=O)([N-]S(=O)(=O)C(F)(F)F)C(F)(F)F the activity coefficient (318.15 K) was 0.6 ± 0.042, the activity coefficient (328.15 K) was 0.653 ± 0.045 and the activity coefficient (338.15 K) was 0.709 ± 0.047. It also gave an activity coefficient (348.15 K) of 0.758 ± 0.05, an activity coefficient (358.15 K) of 0.811 ± 0.052 and an activity coefficient (368.15 K) of 0.859 ± 0.055.
`C=CCCCCCCCC` [1-decene] + C[N+]1(CCCO)CCOCC1.O=S(=O)([N-]S(=O)(=O)C(F)(F)F)C(F)(F)F showed an activity coefficient (318.15 K) of 307 ± 21, an activity coefficient (328.15 K) of 269 ± 18 and an activity coefficient (338.15 K) of 243 ± 17. For the same compound, the activity coefficient (348.15 K) was 218 ± 15, the activity coefficient (358.15 K) was 194 ± 13 and the activity coefficient (368.15 K) was 176 ± 12.
With `C=CCCCCC` [1-heptene] + C[N+]1(CCCO)CCOCC1.O=S(=O)([N-]S(=O)(=O)C(F)(F)F)C(F)(F)F the activity coefficient (318.15 K) was 86.6 ± 5.9, the activity coefficient (328.15 K) was 75.8 ± 5.2 and the activity coefficient (338.15 K) was 69.3 ± 4.7. It also gave an activity coefficient (348.15 K) of 62.2 ± 4.3, an activity coefficient (358.15 K) of 55.7 ± 3.8 and an activity coefficient (368.15 K) of 51.1 ± 3.5.
For `C#CCCCCC` [1-heptyne] + C[N+]1(CCCO)CCOCC1.O=S(=O)([N-]S(=O)(=O)C(F)(F)F)C(F)(F)F, the activity coefficient (318.15 K) was 20 ± 1.4, the activity coefficient (328.15 K) was 19.2 ± 1.3 and the activity coefficient (338.15 K) was 18.4 ± 1.3. It also gave an activity coefficient (348.15 K) of 17.6 ± 1.2, an activity coefficient (358.15 K) of 16.9 ± 1.2 and an activity coefficient (368.15 K) of 16.3 ± 1.1.
Compound `C#CCCCC` [1-hexyne] + C[N+]1(CCCO)CCOCC1.O=S(=O)([N-]S(=O)(=O)C(F)(F)F)C(F)(F)F has an activity coefficient (318.15 K) of 12.5 ± 0.9, an activity coefficient (328.15 K) of 11.9 ± 0.8 and an activity coefficient (338.15 K) of 11.6 ± 0.8. It also gave an activity coefficient (348.15 K) of 11.2 ± 0.8, an activity coefficient (358.15 K) of 10.7 ± 0.7 and an activity coefficient (368.15 K) of 10.4 ± 0.7.
With `CCC[N+](=O)[O-]` [1-nitropropane] + C[N+]1(CCCO)CCOCC1.O=S(=O)([N-]S(=O)(=O)C(F)(F)F)C(F)(F)F the activity coefficient (318.15 K) was 1.24 ± 0.08, the activity coefficient (328.15 K) was 1.26 ± 0.08 and the activity coefficient (338.15 K) was 1.28 ± 0.08. For the same compound, the activity coefficient (348.15 K) was 1.3 ± 0.08, the activity coefficient (358.15 K) was 1.32 ± 0.09 and the activity coefficient (368.15 K) was 1.34 ± 0.09.
Work on `C#CCCCCCC` [1-octyne] + C[N+]1(CCCO)CCOCC1.O=S(=O)([N-]S(=O)(=O)C(F)(F)F)C(F)(F)F yielded an activity coefficient (318.15 K) of 33 ± 2.3, an activity coefficient (328.15 K) of 31.3 ± 2.1 and an activity coefficient (338.15 K) of 29.6 ± 2. The activity coefficient (348.15 K) was 28 ± 1.9, the activity coefficient (358.15 K) was 26.7 ± 1.8 and the activity coefficient (368.15 K) was 25.5 ± 1.7.
In the case of `C=CCCC` [1-pentene] + C[N+]1(CCCO)CCOCC1.O=S(=O)([N-]S(=O)(=O)C(F)(F)F)C(F)(F)F, the activity coefficient (298.15 K) is reported as 64.5 ± 4.4, the activity coefficient (308.15 K) is reported as 49.4 ± 3.4 and the activity coefficient (318.15 K) is reported as 38.3 ± 2.6. The activity coefficient (328.15 K) was 30.6 ± 2.1.
For `C#CCCC` [1-pentyne] + C[N+]1(CCCO)CCOCC1.O=S(=O)([N-]S(=O)(=O)C(F)(F)F)C(F)(F)F, the activity coefficient (318.15 K) was 7.77 ± 0.53, the activity coefficient (328.15 K) was 7.48 ± 0.51 and the activity coefficient (338.15 K) was 7.24 ± 0.49. It also gave an activity coefficient (348.15 K) of 6.99 ± 0.48, an activity coefficient (358.15 K) of 6.79 ± 0.46 and an activity coefficient (368.15 K) of 6.63 ± 0.45.
`CC(C)CC(C)(C)C` [2,2,4-trimethylpentane] + C[N+]1(CCCO)CCOCC1.O=S(=O)([N-]S(=O)(=O)C(F)(F)F)C(F)(F)F showed an activity coefficient (318.15 K) of 272 ± 19, an activity coefficient (328.15 K) of 226 ± 16 and an activity coefficient (338.15 K) of 191 ± 13. For the same compound, the activity coefficient (348.15 K) was 165 ± 11, the activity coefficient (358.15 K) was 140 ± 10 and the activity coefficient (368.15 K) was 125 ± 9.
`CCOC(C)(C)C` [2-ethoxy-2-methylpropane] + C[N+]1(CCCO)CCOCC1.O=S(=O)([N-]S(=O)(=O)C(F)(F)F)C(F)(F)F gave an activity coefficient (318.15 K) of 16.1 ± 1.1, an activity coefficient (328.15 K) of 15.8 ± 1.1 and an activity coefficient (338.15 K) of 15.6 ± 1.1. The activity coefficient (348.15 K) was 15.2 ± 1, the activity coefficient (358.15 K) was 15 ± 1 and the activity coefficient (368.15 K) was 14.8 ± 1.
In the case of `CCC(C)(C)OC` [2-methoxy-2-methylbutane] + C[N+]1(CCCO)CCOCC1.O=S(=O)([N-]S(=O)(=O)C(F)(F)F)C(F)(F)F, the activity coefficient (318.15 K) is reported as 8.7 ± 0.59, the activity coefficient (328.15 K) is reported as 8.75 ± 0.6 and the activity coefficient (338.15 K) is reported as 8.8 ± 0.6. The activity coefficient (348.15 K) was 8.86 ± 0.6, the activity coefficient (358.15 K) was 8.89 ± 0.61 and the activity coefficient (368.15 K) was 8.93 ± 0.61.
With `COC(C)(C)C` [2-methoxy-2-methylpropane] + C[N+]1(CCCO)CCOCC1.O=S(=O)([N-]S(=O)(=O)C(F)(F)F)C(F)(F)F the activity coefficient (318.15 K) was 4.94 ± 0.34, the activity coefficient (328.15 K) was 5.07 ± 0.35 and the activity coefficient (338.15 K) was 5.22 ± 0.36. The activity coefficient (348.15 K) was 5.35 ± 0.36, the activity coefficient (358.15 K) was 5.45 ± 0.37 and the activity coefficient (368.15 K) was 5.58 ± 0.38.
In the case of `CC(C)CO` [2-methyl-1-propanol] + C[N+]1(CCCO)CCOCC1.O=S(=O)([N-]S(=O)(=O)C(F)(F)F)C(F)(F)F, the activity coefficient (318.15 K) is reported as 3.25 ± 0.22, the activity coefficient (328.15 K) is reported as 3.08 ± 0.21 and the activity coefficient (338.15 K) is reported as 2.94 ± 0.2. For the same compound, the activity coefficient (348.15 K) was 2.78 ± 0.19, the activity coefficient (358.15 K) was 2.65 ± 0.18 and the activity coefficient (368.15 K) was 2.54 ± 0.17.
`CC(C)(C)O` [2-methylpropan-2-ol] + C[N+]1(CCCO)CCOCC1.O=S(=O)([N-]S(=O)(=O)C(F)(F)F)C(F)(F)F showed an activity coefficient (318.15 K) of 2.09 ± 0.14, an activity coefficient (328.15 K) of 2.06 ± 0.14 and an activity coefficient (338.15 K) of 2.03 ± 0.14. The activity coefficient (348.15 K) was 2 ± 0.14, the activity coefficient (358.15 K) was 1.97 ± 0.13 and the activity coefficient (368.15 K) was 1.95 ± 0.13.
`CCC(C)CC` [3-methylpentane] + C[N+]1(CCCO)CCOCC1.O=S(=O)([N-]S(=O)(=O)C(F)(F)F)C(F)(F)F showed an activity coefficient (298.15 K) of 273 ± 19, an activity coefficient (308.15 K) of 201 ± 14 and an activity coefficient (318.15 K) of 152 ± 10.
`C=C(C)c1ccccc1` [(1-methylethenyl)benzene] + C[N+]1(CCCO)CCOCC1.O=S(=O)([N-]S(=O)(=O)C(F)(F)F)C(F)(F)F showed an activity coefficient (318.15 K) of 5.97 ± 0.41, an activity coefficient (328.15 K) of 6.12 ± 0.42 and an activity coefficient (338.15 K) of 6.28 ± 0.43. It also gave an activity coefficient (348.15 K) of 6.41 ± 0.44, an activity coefficient (358.15 K) of 6.55 ± 0.45 and an activity coefficient (368.15 K) of 6.65 ± 0.45.
In the case of `CC(C)=O` [acetone] + C[N+]1(CCCO)CCOCC1.O=S(=O)([N-]S(=O)(=O)C(F)(F)F)C(F)(F)F, the activity coefficient (318.15 K) is reported as 0.486 ± 0.037, the activity coefficient (328.15 K) is reported as 0.517 ± 0.039 and the activity coefficient (338.15 K) is reported as 0.543 ± 0.04. For the same compound, the activity coefficient (348.15 K) was 0.572 ± 0.041, the activity coefficient (358.15 K) was 0.596 ± 0.042 and the activity coefficient (368.15 K) was 0.63 ± 0.04.
Compound `CC#N` [acetonitrile] + C[N+]1(CCCO)CCOCC1.O=S(=O)([N-]S(=O)(=O)C(F)(F)F)C(F)(F)F has an activity coefficient (318.15 K) of 0.479 ± 0.037, an activity coefficient (328.15 K) of 0.495 ± 0.038 and an activity coefficient (338.15 K) of 0.513 ± 0.038. For the same compound, the activity coefficient (348.15 K) was 0.528 ± 0.039, the activity coefficient (358.15 K) was 0.545 ± 0.04 and the activity coefficient (368.15 K) was 0.561 ± 0.04.
`c1ccccc1` [benzene] + C[N+]1(CCCO)CCOCC1.O=S(=O)([N-]S(=O)(=O)C(F)(F)F)C(F)(F)F showed an activity coefficient (318.15 K) of 2.53 ± 0.17, an activity coefficient (328.15 K) of 2.56 ± 0.17 and an activity coefficient (338.15 K) of 2.58 ± 0.18. For the same compound, the activity coefficient (348.15 K) was 2.6 ± 0.18, the activity coefficient (358.15 K) was 2.63 ± 0.18 and the activity coefficient (368.15 K) was 2.65 ± 0.18.
With `CCCCO` [butan-1-ol] + C[N+]1(CCCO)CCOCC1.O=S(=O)([N-]S(=O)(=O)C(F)(F)F)C(F)(F)F the activity coefficient (318.15 K) was 3.23 ± 0.22, the activity coefficient (328.15 K) was 3.07 ± 0.21 and the activity coefficient (338.15 K) was 2.96 ± 0.2. For the same compound, the activity coefficient (348.15 K) was 2.84 ± 0.19, the activity coefficient (358.15 K) was 2.73 ± 0.19 and the activity coefficient (368.15 K) was 2.64 ± 0.18.
